Calls of active or inactive are those of the source.
Experiments:
[1] = target: T1, Mannose-6-phosphate isomerase (Homo sapiens, UniProt P34949); test: MPI inhibition at elevated mannose 6-phosphate – biochemical, fluorescence intensity, high mannose 6-phosphate, primary screen (AID 1220)
T1 sequence (P34949 whole entry): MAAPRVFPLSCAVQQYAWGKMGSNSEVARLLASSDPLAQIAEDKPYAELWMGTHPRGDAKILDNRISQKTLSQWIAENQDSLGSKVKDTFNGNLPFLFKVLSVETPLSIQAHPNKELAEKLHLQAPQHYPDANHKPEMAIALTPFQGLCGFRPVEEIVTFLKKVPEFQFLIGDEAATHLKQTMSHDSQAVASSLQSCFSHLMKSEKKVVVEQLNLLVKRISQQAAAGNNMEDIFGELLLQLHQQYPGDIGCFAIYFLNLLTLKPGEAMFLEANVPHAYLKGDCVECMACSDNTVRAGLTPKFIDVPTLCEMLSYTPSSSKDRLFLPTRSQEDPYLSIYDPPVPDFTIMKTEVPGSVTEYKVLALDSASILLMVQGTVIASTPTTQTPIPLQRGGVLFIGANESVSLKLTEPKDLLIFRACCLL

[2] = THP-1 cell cytotoxicity, dose response, cytotoxicity control for non-replicating M. tuberculosis project (AID 489025); format: functional
cells = format: functional
Kallikrein-7 = Kallikrein-7 (Homo sapiens, UniProt P49862); test: Fluorescence Intensity-based biochemical primary high throughput dose response assay to identify activators of kallikrein-7 (K7) zymogen.
[3] = target: T2, Heat shock factor protein 1 (Mus musculus, UniProt P38532); test: decrease of HSF1-responsive luciferase luminescence – cell-based, NIH3T3, dose retest, confirmation (AID 2382); format: functional;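 further: NIH3T3 fibroblasts with HSF1-driven luciferase reporter stressed by proteasome inhibitor MG132; luminescence from HSF1-driven luciferase expression after 8 hours of MG132 stress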
T2 sequence (P38532 whole entry): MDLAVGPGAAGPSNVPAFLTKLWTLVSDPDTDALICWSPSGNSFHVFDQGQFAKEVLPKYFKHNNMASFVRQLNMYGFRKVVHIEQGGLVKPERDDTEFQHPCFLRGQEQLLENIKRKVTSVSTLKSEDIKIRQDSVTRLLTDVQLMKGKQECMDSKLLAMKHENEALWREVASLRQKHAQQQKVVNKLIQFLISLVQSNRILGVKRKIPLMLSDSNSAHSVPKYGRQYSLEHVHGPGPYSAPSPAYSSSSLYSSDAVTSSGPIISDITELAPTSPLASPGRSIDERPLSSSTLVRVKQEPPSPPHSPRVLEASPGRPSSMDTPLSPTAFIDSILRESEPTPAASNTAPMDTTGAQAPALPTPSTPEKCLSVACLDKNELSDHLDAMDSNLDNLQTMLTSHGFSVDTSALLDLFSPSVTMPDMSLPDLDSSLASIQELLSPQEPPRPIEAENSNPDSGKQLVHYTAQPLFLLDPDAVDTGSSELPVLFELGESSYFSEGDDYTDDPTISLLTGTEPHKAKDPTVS

INS1 = test: INS-1E survival protection against cytokine death – cell-based, luminescence, retest, dose response (AID 449756); format: functional; details: Rattus norvegicus;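 further: cell death triggered by IL-1 beta plus TNF-alpha plus IFN-gamma mixture; protective hits raise ATP signal compared with cytokine alone wells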
[4] = target: Induced myeloid leukemia cell differentiation protein Mcl-1 (Homo sapiens, UniProt Q07820); format: functional
[5] = DRD fibroblast viability loss – cell-based, non-viral oncogenic, luminescence, dose response (AID 1934); format: functional; details: Homo sapiens
BJ [6] = test: cells; format: functional, cell-based; details: Homo sapiens
BJ [7] = test: BJ-TERT fibroblast viability loss – cell-based, RAS-independent, luminescence, dose response (AID 1933); format: functional; details: Homo sapiens
BJ [8] = test: BJ-TERT-LT-ST fibroblast viability loss – cell-based, RAS-independent, luminescence, dose response (AID 1935); format: functional; details: Homo sapiens;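 further: BJ fibroblasts immortalized with TERT plus LT and ST oncogenes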
Genome polyprotein = Genome polyprotein (dengue virus type 2, UniProt P29990); test: flavivirus cap methylation enzyme inhibition – biochemical, confirmation dose response, primary screen (AID 588689); format: functional
[9] = blockade of melanocortin 4 receptor signaling – cell-based, plate reader, cherry pick, counter-screen for LGR2 antagonist project, dose response (AID 743444); format: functional;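 further: transfected HEK 293 cells stimulated with alpha-MSH peptide; potency of inhibitors of the alpha-MSH evoked signal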
Caspase-3 = target: T3, Caspase-3 (Homo sapiens, UniProt P42574); format: functional;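 further: Dose-response selectivity test against caspase-3 for candidate inhibitors of sentrin-specific proteases (SENPs)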
T3 sequence (P42574 whole entry): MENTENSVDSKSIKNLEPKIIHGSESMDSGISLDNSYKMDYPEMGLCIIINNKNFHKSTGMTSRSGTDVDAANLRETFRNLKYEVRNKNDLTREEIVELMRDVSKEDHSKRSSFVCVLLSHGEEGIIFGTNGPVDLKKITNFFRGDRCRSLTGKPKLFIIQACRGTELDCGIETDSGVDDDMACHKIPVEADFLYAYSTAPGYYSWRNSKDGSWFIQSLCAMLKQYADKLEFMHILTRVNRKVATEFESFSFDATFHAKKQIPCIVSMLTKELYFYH

[10] = target: T4, Sentrin-specific protease 8 (Homo sapiens, UniProt Q96LD8); format: functional;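 further: luminescence read-out of SENP8 inhibition, dose-response confirmation following an ultra-high-throughput screen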
T4 sequence (Q96LD8 whole entry): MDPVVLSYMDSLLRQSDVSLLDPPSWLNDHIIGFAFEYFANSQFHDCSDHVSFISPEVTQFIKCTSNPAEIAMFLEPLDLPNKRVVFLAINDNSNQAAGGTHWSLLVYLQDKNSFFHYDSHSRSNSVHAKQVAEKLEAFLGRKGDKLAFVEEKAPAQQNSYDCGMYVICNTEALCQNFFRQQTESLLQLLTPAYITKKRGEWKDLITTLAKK

[11] = target: T5, Sentrin-specific protease 6 (Homo sapiens, UniProt Q9GZR1); format: functional;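 further: Luminescence-based dose-response confirmatory assay of SENP6 inhibition, following up an ultra-high-throughput screen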
T5 sequence (Q9GZR1 whole entry): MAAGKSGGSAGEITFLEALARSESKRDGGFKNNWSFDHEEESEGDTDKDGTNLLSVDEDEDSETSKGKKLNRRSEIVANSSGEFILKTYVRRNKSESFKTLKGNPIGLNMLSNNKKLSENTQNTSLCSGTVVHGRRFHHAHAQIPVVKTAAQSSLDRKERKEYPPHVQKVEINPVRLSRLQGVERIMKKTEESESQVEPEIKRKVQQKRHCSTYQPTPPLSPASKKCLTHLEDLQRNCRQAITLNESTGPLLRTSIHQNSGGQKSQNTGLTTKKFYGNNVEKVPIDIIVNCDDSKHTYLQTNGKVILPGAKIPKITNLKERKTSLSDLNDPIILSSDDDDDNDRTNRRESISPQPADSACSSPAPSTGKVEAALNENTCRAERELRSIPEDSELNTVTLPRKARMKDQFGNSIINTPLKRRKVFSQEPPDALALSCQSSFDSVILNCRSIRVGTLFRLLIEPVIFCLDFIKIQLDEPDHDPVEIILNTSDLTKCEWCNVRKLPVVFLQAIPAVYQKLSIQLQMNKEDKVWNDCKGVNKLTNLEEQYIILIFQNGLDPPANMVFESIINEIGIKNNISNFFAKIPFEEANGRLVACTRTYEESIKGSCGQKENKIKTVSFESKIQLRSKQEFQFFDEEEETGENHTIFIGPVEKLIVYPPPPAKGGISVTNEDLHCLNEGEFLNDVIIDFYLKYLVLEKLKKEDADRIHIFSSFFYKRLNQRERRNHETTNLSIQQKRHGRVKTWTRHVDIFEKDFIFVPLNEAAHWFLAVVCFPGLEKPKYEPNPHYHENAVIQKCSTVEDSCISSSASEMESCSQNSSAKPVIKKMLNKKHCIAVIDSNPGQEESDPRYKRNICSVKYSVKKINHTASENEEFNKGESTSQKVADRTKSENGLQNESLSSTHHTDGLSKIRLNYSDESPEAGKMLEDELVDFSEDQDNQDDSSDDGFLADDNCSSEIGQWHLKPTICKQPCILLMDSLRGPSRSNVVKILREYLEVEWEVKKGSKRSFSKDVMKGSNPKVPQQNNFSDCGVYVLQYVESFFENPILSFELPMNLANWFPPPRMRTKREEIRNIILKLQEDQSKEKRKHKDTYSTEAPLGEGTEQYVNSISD

[12] = target: T6, Sentrin-specific protease 7 (Homo sapiens, UniProt Q9BQF6); format: functional;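 further: Luminescence-based dose-response confirmation of ultra-high-throughput screening hits, measuring inhibition of SENP7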
T6 sequence (Q9BQF6 whole entry): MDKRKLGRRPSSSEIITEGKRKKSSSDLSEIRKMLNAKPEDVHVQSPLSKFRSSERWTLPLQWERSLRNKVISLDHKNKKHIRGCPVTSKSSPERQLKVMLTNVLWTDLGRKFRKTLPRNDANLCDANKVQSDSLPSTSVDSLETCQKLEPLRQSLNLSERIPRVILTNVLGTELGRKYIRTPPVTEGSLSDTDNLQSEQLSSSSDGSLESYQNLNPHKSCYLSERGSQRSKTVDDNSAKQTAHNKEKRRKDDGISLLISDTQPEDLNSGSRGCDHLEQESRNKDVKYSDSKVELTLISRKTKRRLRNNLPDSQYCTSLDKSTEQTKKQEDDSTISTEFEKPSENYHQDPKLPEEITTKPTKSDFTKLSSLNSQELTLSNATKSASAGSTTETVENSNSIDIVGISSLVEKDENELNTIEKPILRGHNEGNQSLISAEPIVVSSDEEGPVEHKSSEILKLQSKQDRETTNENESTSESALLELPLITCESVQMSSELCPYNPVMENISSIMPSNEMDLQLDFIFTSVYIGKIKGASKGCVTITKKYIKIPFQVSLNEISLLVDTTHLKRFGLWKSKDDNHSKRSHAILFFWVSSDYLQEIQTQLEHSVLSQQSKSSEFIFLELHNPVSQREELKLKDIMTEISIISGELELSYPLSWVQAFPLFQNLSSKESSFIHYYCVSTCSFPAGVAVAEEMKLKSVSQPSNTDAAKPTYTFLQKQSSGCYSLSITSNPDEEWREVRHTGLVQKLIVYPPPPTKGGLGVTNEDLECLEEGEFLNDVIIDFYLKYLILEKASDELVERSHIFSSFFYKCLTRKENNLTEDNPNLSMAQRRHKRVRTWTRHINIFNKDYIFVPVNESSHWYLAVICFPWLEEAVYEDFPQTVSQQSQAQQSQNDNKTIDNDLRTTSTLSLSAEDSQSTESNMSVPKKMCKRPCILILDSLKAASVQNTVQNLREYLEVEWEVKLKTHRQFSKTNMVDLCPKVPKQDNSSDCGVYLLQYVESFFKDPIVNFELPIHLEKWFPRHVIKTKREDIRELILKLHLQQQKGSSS

[13] = blockers of bursicon-stimulated LGR2 cAMP reporter – cell-based, HEK293, CRE-luciferase reporter, cherry pick, set 2, dose response (AID 743343); format: functional;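 further: transfected cells were stimulated with diluted bursicon conditioned medium after compound addition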
[14] = toxicity toward HepG2 liver cells – cell-based, plate reader, cherry-pick, antagonist series, cytotoxicity control, dose response (AID 743416); format: functional
[15] = A549 cell cytotoxicity, dose response, cytotoxicity control, plate reader, cherry-pick, antagonist series (AID 743412); format: functional, cell-based
[16] = Luminescence Cell-Based Dose Confirmation HTS to Identify Inhibitors of Platelet Dense Granule Release. [Related pubchem assays: 1663 (Primary HTS), 1678 (Summary of Project)]; format: functional
[17] = target: Luciferin 4-monooxygenase (Photinus pyralis, UniProt P08659); test: inhibition of purified Photinus pyralis luciferase – biochemical, luminescence, dose response (AID 1891)
[18] = Trypanosoma cruzi growth suppression in host cells – NIH3T3 host cells, beta-gal luminescence, confirmation (AID 2044); format: functional, cell-based;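 further: intracellular parasites grown in NIH/3T3 mouse fibroblasts as host cells; luminescent beta-galactosidase reporter signal from transgenic T. cruzi replicating inside host cells; inhibitors lower the luminescence signal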
[19] = NIH3T3 cell viability loss – ATP luminescence, mouse fibroblasts, counter-screen, dose response (AID 2010); format: functional, cell-based;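 further: cells exposed to compound for about 90 hours before reading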

Sequence of Kallikrein-7 (P49862 whole entry): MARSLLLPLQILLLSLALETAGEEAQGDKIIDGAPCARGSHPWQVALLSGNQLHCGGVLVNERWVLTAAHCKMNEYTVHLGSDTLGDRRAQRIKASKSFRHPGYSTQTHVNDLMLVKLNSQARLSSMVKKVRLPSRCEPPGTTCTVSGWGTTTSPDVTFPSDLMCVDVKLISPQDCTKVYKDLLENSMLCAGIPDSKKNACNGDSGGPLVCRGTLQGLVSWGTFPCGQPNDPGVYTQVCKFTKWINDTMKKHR
Sequence of Luciferin 4-monooxygenase (P08659 whole entry): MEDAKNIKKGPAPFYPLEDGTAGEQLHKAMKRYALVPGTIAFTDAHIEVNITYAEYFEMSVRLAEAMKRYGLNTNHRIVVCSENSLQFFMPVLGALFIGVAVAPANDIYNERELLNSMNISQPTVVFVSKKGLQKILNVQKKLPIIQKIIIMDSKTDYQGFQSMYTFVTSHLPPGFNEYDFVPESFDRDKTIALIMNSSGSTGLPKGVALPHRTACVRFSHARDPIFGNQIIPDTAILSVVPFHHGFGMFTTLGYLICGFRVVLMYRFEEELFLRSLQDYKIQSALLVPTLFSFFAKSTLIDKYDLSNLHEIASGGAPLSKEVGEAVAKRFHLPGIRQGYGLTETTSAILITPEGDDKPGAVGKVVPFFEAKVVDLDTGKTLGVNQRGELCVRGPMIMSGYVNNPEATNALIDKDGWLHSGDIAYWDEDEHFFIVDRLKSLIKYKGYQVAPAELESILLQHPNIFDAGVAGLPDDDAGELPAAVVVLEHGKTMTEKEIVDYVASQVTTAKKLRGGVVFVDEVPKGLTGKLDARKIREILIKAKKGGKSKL
Sequence of Genome polyprotein (P29990 2492-3391 limits assumed): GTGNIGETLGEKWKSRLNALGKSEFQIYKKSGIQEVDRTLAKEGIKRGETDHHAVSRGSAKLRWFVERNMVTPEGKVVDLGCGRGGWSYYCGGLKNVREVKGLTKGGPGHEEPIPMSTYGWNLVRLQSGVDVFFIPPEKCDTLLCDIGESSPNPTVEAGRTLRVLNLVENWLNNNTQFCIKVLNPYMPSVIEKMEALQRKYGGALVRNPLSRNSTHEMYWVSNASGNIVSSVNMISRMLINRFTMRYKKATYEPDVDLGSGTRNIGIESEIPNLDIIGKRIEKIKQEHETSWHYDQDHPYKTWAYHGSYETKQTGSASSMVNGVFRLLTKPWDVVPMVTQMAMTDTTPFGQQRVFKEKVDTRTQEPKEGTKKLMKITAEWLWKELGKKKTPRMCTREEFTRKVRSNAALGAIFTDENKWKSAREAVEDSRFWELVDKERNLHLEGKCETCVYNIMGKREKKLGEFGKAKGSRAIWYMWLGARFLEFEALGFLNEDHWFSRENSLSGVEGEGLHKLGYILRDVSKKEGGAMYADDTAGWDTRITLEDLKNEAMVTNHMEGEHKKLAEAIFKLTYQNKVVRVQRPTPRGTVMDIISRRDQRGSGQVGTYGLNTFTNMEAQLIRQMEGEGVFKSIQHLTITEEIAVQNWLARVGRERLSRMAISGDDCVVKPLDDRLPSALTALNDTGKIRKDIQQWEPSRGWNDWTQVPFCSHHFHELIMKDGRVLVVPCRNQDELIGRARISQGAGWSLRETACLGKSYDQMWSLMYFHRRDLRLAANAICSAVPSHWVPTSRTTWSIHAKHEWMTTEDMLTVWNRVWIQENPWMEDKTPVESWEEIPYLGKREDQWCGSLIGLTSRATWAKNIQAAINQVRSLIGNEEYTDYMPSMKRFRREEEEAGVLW
Sequence of Induced myeloid leukemia cell differentiation protein Mcl-1 (Q07820 whole entry): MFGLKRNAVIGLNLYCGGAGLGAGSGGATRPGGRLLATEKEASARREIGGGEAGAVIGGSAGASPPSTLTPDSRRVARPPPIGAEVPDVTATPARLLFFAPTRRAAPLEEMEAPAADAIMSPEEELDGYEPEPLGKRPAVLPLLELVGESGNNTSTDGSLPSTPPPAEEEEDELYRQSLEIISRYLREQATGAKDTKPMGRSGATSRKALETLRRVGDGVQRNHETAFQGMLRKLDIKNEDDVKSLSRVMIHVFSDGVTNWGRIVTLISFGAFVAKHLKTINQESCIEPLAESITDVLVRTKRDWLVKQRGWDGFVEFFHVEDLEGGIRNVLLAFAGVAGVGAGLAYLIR

## CCc1cc(N2CCOCC2)cc2c1[nH]c1ccccc12
[1]
  IC50: > 50 µM (not active)

## COC(=O)COc1cccc(NC(=O)COc2ccccc2)c1
[2]
  CC50: > 40 µM (active)
cells
  IC50: 1.65 µM (active)

## O=C(Nc1ccc2c(c1)C(=O)NC2=O)c1ccc(S(=O)(=O)N2CCCC2)cc1
Kallikrein-7
  EC50: 8.55 µM (active)

## O=C(c1ccc([N+](=O)[O-])s1)N1CCN(c2cccc(Cl)c2)CC1
[3]
  EC50: > 195 µM (not active)
[2]
  CC50: 35.6 µM (active)
cells
  IC50: 1.11 µM (active)
INS1
  AC50: 7.83 µM (active)

## COCCN(CCOC)c1cc(C)c(C#N)c2nc3ccccc3n12
Kallikrein-7
  EC50: 11.2 µM (inactive)

## CCc1cccc(OCCCn2ccnc2)c1
[2]
  CC50: > 40 µM (active)

## Cc1cccc(-n2c(SCC(=O)N3CCCC3)nc3nnc(C)c-3c2N)c1
Kallikrein-7
  EC50: 13.3 µM (inactive)

## O=C(NC1CCCCCC1)c1cc2c(=O)n3ccccc3nc2s1
Kallikrein-7
  EC50: > 69.5 µM (inactive)

## O=C(Nc1ccc2nc3ccccc3nc2c1)c1ccccc1
[4]
  IC50: > 54 µM (active)
Kallikrein-7
  EC50: > 69.5 µM (inactive)

## CN1C(=O)NC(=O)/C(=C/c2ccc([N+](=O)[O-])s2)C1=O
[5]
  EC50: > 150 µM (not active)
BJ [6]
  EC50: > 150 µM (not active)
[2]
  CC50: 33.8 µM (active)
cells
  IC50: 23.2 µM (active)
BJ [7]
  EC50: 11.2 µM (active)
BJ [8]
  EC50: > 150 µM (not active)
Genome polyprotein
  IC50: 17.4 µM (active)

## COCCn1c(C)cc(C(=O)CSc2nc3ccccc3s2)c1C
[9]
  AC50: 6.46 µM (active)
Caspase-3
  IC50: 26.4 µM (active)
[10]
  IC50: 83.7 µM (active)
[11]
  IC50: 27.4 µM (active)
[12]
  IC50: 8.92 µM (active)
[13]
  AC50: 3.81 µM (active)
[14]
  AC50: 41.8 µM (active)

## COC(=O)C1=CNC=C(C(=O)OC)C1c1ccc(C(=O)OC)cc1
Kallikrein-7
  EC50: > 69.5 µM (inactive)

## CC(=O)c1ccc(Nc2nc(-c3sc(C)nc3C)cs2)cc1
[9]
  AC50: 34 µM (active)
[15]
  AC50: 2.08 µM (active)
[13]
  AC50: 21.8 µM (active)
[14]
  AC50: 2.87 µM (active)

## CCCCN1C(=O)/C(=N\c2cccc3cnccc23)c2ccccc21
[16]
  EC50: > 112 µM (not active)
[17]
  EC50: > 112 µM (not active)
[1]
  IC50: > 50 µM (not active)

## CCC/C(=N\NC(=O)c1ccco1)c1ccc(Cl)s1
[2]
  CC50: > 40 µM (active)
cells
  IC50: 13.9 µM (active)

## O=C(O)c1ccc(/C=N/NC(=O)c2cc(-c3cccs3)nc3ccccc23)cc1
Kallikrein-7
  EC50: 49.6 µM (inactive)

## CC(C)(C)C1=CC(=O)C(=O)C(C(C)(C)C)=C1
[1]
  IC50: 9.84 µM (active)
[18]
  EC50: 620 nM (active)
[19]
  EC50: 7.34 µM (active)

## O=C(Nc1nc2ccccc2[nH]1)c1ccc(Cl)cc1
[9]
  AC50: 6.33 µM (active)
[15]
  AC50: 29.1 µM (active)
[13]
  AC50: 10.1 µM (active)
[14]
  AC50: 29.5 µM (active)

From ChEMBL document CHEMBL1201862, “PubChem BioAssay data set” (2004)
